Drawing on patent publication US7868026B2, “Therapeutic compounds” (Pfizer Inc., priority 2005, dated 2011), this text covers Ki and IC50 for nine compounds.

T1 sequence (P08684 whole entry): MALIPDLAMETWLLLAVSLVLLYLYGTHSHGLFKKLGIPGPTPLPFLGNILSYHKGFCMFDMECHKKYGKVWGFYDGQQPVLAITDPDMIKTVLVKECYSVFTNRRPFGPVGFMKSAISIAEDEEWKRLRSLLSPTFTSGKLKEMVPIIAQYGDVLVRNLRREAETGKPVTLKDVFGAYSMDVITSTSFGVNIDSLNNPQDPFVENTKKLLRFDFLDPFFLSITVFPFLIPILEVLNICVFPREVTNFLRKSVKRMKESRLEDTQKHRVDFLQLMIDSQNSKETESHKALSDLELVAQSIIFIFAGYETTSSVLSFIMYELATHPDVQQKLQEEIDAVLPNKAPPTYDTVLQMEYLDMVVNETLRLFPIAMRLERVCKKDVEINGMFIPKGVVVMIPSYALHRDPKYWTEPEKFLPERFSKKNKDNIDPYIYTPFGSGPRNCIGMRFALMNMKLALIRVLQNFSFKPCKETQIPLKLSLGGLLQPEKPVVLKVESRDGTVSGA

One experiment concerns the target T1, CYP3A4 (Homo sapiens, UniProt P08684). The experiment in a line: Determination of compound Kiapp against recombinant CYP3A4 enzyme (BFC fluorescent substrate). The format is biochemical. The settings on record: Baculo. enzyme preparation, read-out: Kiapp (BFC, Baculo.). The gist of the method:
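Kiapp derived from initial velocities over the first 5 min of BFC (5 uM) oxidation, using Morrison's tight-binding equation for non-partial and Szedlacsek's for partial inhibitors. Inhibitor first pre-incubated ≥30 min with CYP3A4 (5.5 or 8 nM, ±b5) in pH 7.0 phosphate/TCEP/2% DMF at room temperature; 200 uM NADPH initiated.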
Consider `COc1cncc(NS(=O)(=O)c2ccccc2C(=O)NCCc2cccnc2)c1` [Example 384, 2-{[(5-methoxypyridin-3-yl)amino]sulfonyl}-N-(2-pyridin-3-ylethyl)benzamide], for which the Ki came to 560 nM.

Turning to `COc1cncc(NS(=O)(=O)c2ccccc2C(=O)NCCN2CCCCC2)c1` [Example 385, 2-{[(5-methoxypyridin-3-yl)amino]sulfonyl}N-(2-piperidin-1-ylethyl)benzamide], the Ki was more than 1000 nM.

On to `COc1cncc(NS(=O)(=O)c2ccccc2C(=O)NCCN2CCCC2)c1` [Example 386, 2-{[(5-methoxypyridin-3-yl)amino]sulfonyl}-N-(2-pyrrolidin-1-ylethyl)benzamide], for which the Ki was more than 1000 nM.

Consider `COc1cncc(NS(=O)(=O)c2ccccc2C(=O)NCCC2CCCN2C)c1` (stereo not drawn) [Example 387, 2-{[(5-methoxypyridin-3-yl)amino]sulfonyl}N[2-(1-methylpyrrolidin-2-yl)ethyl]benzamide], for which the Ki was more than 1000 nM.

As to `COc1cncc(NS(=O)(=O)c2ccccc2C(=O)NCCc2ccccc2C)c1` [Example 388, 2-{[(5-methoxypyridin-3-yl)amino]sulfonyl}-N-[2-(2-methylphenyl)ethyl]benzamide], the Ki was determined as 16 nM.

For `COc1cncc(NS(=O)(=O)c2ccccc2C(=O)N2CCC(C)CC2)c1` [Example 389, N-(5-methoxypyridin-3-yl)-2-[(4-methylpiperidin-1-yl)carbonyl]benzenesulfonamide], the Ki was determined as 241 nM.

Consider `CCCN(CC1CC1)C(=O)c1ccccc1S(=O)(=O)Nc1cncc(OC)c1` [Example 390, N-(cyclopropylmethyl)-2-{[(5-methoxypyridin-3-yl)amino]sulfonyl}-N-propylbenzamide], for which the Ki is 84.9 nM.

For the compound `COc1cncc(NS(=O)(=O)c2ccccc2C(=O)N2CCCC(C)(C)C2)c1` [Example 391, 2-[(3,3-dimethylpiperidin-1-yl)carbonyl]-N-(5-methoxypyridin-3-yl)benzenesulfonamide], the Ki was determined as 317 nM.

As to `O=C(c1ccccc1S(=O)(=O)Nc1cncc(Br)c1)N1CCCCC1` [Example 392, N-(5-bromopyridin-3-yl)-2-(piperidin-1-ylcarbonyl)benzenesulfonamide], the Ki is more than 1000 nM.

The same experiment, now with this note: Super. enzyme preparation, read-out: Kiapp (BFC, Super.).
As to `COc1cncc(NS(=O)(=O)c2ccccc2C(=O)NCCc2cccnc2)c1` [Example 384, 2-{[(5-methoxypyridin-3-yl)amino]sulfonyl}-N-(2-pyridin-3-ylethyl)benzamide], the Ki came to 19.2 nM.

On to `COc1cncc(NS(=O)(=O)c2ccccc2C(=O)NCCN2CCCCC2)c1` [Example 385, 2-{[(5-methoxypyridin-3-yl)amino]sulfonyl}N-(2-piperidin-1-ylethyl)benzamide], for which the Ki worked out at 216 nM.

On to `COc1cncc(NS(=O)(=O)c2ccccc2C(=O)NCCN2CCCC2)c1` [Example 386, 2-{[(5-methoxypyridin-3-yl)amino]sulfonyl}-N-(2-pyrrolidin-1-ylethyl)benzamide], for which the Ki stood at 174 nM.

As for `COc1cncc(NS(=O)(=O)c2ccccc2C(=O)NCCC2CCCN2C)c1` (stereo not drawn) [Example 387, 2-{[(5-methoxypyridin-3-yl)amino]sulfonyl}N[2-(1-methylpyrrolidin-2-yl)ethyl]benzamide], the Ki came to 224 nM.

Turning to `COc1cncc(NS(=O)(=O)c2ccccc2C(=O)NCCc2ccccc2C)c1` [Example 388, 2-{[(5-methoxypyridin-3-yl)amino]sulfonyl}-N-[2-(2-methylphenyl)ethyl]benzamide], the Ki was less than 1 nM.

With `COc1cncc(NS(=O)(=O)c2ccccc2C(=O)N2CCC(C)CC2)c1` [Example 389, N-(5-methoxypyridin-3-yl)-2-[(4-methylpiperidin-1-yl)carbonyl]benzenesulfonamide], the Ki worked out at 2.81 nM.

Consider `CCCN(CC1CC1)C(=O)c1ccccc1S(=O)(=O)Nc1cncc(OC)c1` [Example 390, N-(cyclopropylmethyl)-2-{[(5-methoxypyridin-3-yl)amino]sulfonyl}-N-propylbenzamide], for which the Ki amounted to 1.78 nM.

On to `COc1cncc(NS(=O)(=O)c2ccccc2C(=O)N2CCCC(C)(C)C2)c1` [Example 391, 2-[(3,3-dimethylpiperidin-1-yl)carbonyl]-N-(5-methoxypyridin-3-yl)benzenesulfonamide], for which the Ki is 6.26 nM.

Consider `O=C(c1ccccc1S(=O)(=O)Nc1cncc(Br)c1)N1CCCCC1` [Example 392, N-(5-bromopyridin-3-yl)-2-(piperidin-1-ylcarbonyl)benzenesulfonamide], for which the Ki was found to be 320 nM.

For another experiment, the target named is T1, CYP3A4. The experiment in a line: Determination of IC50 against CYP3A4 by measurement of inhibition of testosterone metabolism (human liver microsomes, 6-β-OH-testosterone by LC-MS/MS). The format is biochemical. More on the design: 0.1 mg/mL human liver microsomes. The settings on record: read-out: IC50 (Testo.). In a few lines: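 6-β-OH-testosterone formation was read by LC-MS/MS (MRM, internal standard, standard curve) after eight minutes. Reaction contained testosterone 25 μM, NADPH 1 mM and microsomal protein 0.1 mg/mL in pH 7.4 potassium phosphate (100 mM).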
Background: Liver microsomes are a subcellular fraction often used to study metabolism.
Usually IC50 stands for the concentration needed to halve the response being measured. Turning to `COc1cncc(NS(=O)(=O)c2ccccc2C(=O)NCCc2cccnc2)c1` [Example 384, 2-{[(5-methoxypyridin-3-yl)amino]sulfonyl}-N-(2-pyridin-3-ylethyl)benzamide], the IC50 was 178 nM.

On to `COc1cncc(NS(=O)(=O)c2ccccc2C(=O)NCCN2CCCCC2)c1` [Example 385, 2-{[(5-methoxypyridin-3-yl)amino]sulfonyl}N-(2-piperidin-1-ylethyl)benzamide], for which the IC50 was more than 750 nM.

`COc1cncc(NS(=O)(=O)c2ccccc2C(=O)NCCN2CCCC2)c1` [Example 386, 2-{[(5-methoxypyridin-3-yl)amino]sulfonyl}-N-(2-pyrrolidin-1-ylethyl)benzamide]: the IC50 was more than 750 nM.

As to `COc1cncc(NS(=O)(=O)c2ccccc2C(=O)NCCC2CCCN2C)c1` (stereo not drawn) [Example 387, 2-{[(5-methoxypyridin-3-yl)amino]sulfonyl}N[2-(1-methylpyrrolidin-2-yl)ethyl]benzamide], the half-inhibitory concentration (IC50) was more than 750 nM.

On to `COc1cncc(NS(=O)(=O)c2ccccc2C(=O)NCCc2ccccc2C)c1` [Example 388, 2-{[(5-methoxypyridin-3-yl)amino]sulfonyl}-N-[2-(2-methylphenyl)ethyl]benzamide], for which the IC50 amounted to 3 nM.

As to `COc1cncc(NS(=O)(=O)c2ccccc2C(=O)N2CCC(C)CC2)c1` [Example 389, N-(5-methoxypyridin-3-yl)-2-[(4-methylpiperidin-1-yl)carbonyl]benzenesulfonamide], the half-maximal inhibitory concentration (IC50) turned out to be 57 nM.

As to `CCCN(CC1CC1)C(=O)c1ccccc1S(=O)(=O)Nc1cncc(OC)c1` [Example 390, N-(cyclopropylmethyl)-2-{[(5-methoxypyridin-3-yl)amino]sulfonyl}-N-propylbenzamide], the IC50 was determined as 70 nM.

Turning to `COc1cncc(NS(=O)(=O)c2ccccc2C(=O)N2CCCC(C)(C)C2)c1` [Example 391, 2-[(3,3-dimethylpiperidin-1-yl)carbonyl]-N-(5-methoxypyridin-3-yl)benzenesulfonamide], the IC50 is 63 nM.

Turning to `O=C(c1ccccc1S(=O)(=O)Nc1cncc(Br)c1)N1CCCCC1` [Example 392, N-(5-bromopyridin-3-yl)-2-(piperidin-1-ylcarbonyl)benzenesulfonamide], the half-maximal inhibitory concentration (IC50) came to 9 nM.

A further experiment has as its target T1, CYP3A4. The experiment in a line: Determination of IC50 against CYP3A4 by measurement of inhibition of midazolam metabolism (human liver microsomes, 1-hydroxymidazolam by LC-MS/MS). The format is biochemical. Details: 0.1 mg/mL human liver microsomes. The settings on record: 2 μM midazolam, 0.1 mg/mL human liver microsomes. The gist of the method:
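Human liver microsomes (0.1 mg/mL) incubated 8 min with 2 μM midazolam and 1 mM NADPH in 100 mM potassium phosphate, pH 7.4. 1-Hydroxymidazolam quantified by LC-MS/MS (MRM) as peak area ratio to internal standard against a metabolite standard curve.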
On to `COc1cncc(NS(=O)(=O)c2ccccc2C(=O)NCCc2cccnc2)c1` [Example 384, 2-{[(5-methoxypyridin-3-yl)amino]sulfonyl}-N-(2-pyridin-3-ylethyl)benzamide], for which the half-maximal inhibitory concentration (IC50) amounted to 43 nM.

`COc1cncc(NS(=O)(=O)c2ccccc2C(=O)NCCN2CCCCC2)c1` [Example 385, 2-{[(5-methoxypyridin-3-yl)amino]sulfonyl}N-(2-piperidin-1-ylethyl)benzamide]: the IC50 was more than 750 nM.

For the compound `COc1cncc(NS(=O)(=O)c2ccccc2C(=O)NCCN2CCCC2)c1` [Example 386, 2-{[(5-methoxypyridin-3-yl)amino]sulfonyl}-N-(2-pyrrolidin-1-ylethyl)benzamide], the concentration for half-maximal inhibition (IC50) was more than 750 nM.

Turning to `COc1cncc(NS(=O)(=O)c2ccccc2C(=O)NCCC2CCCN2C)c1` (stereo not drawn) [Example 387, 2-{[(5-methoxypyridin-3-yl)amino]sulfonyl}N[2-(1-methylpyrrolidin-2-yl)ethyl]benzamide], the half-inhibitory concentration (IC50) was more than 750 nM.

On to `COc1cncc(NS(=O)(=O)c2ccccc2C(=O)NCCc2ccccc2C)c1` [Example 388, 2-{[(5-methoxypyridin-3-yl)amino]sulfonyl}-N-[2-(2-methylphenyl)ethyl]benzamide], for which the IC50 amounted to 9 nM.

For `COc1cncc(NS(=O)(=O)c2ccccc2C(=O)N2CCC(C)CC2)c1` [Example 389, N-(5-methoxypyridin-3-yl)-2-[(4-methylpiperidin-1-yl)carbonyl]benzenesulfonamide], the IC50 is 24 nM.

On to `CCCN(CC1CC1)C(=O)c1ccccc1S(=O)(=O)Nc1cncc(OC)c1` [Example 390, N-(cyclopropylmethyl)-2-{[(5-methoxypyridin-3-yl)amino]sulfonyl}-N-propylbenzamide], for which the IC50 came to 18 nM.

As to `COc1cncc(NS(=O)(=O)c2ccccc2C(=O)N2CCCC(C)(C)C2)c1` [Example 391, 2-[(3,3-dimethylpiperidin-1-yl)carbonyl]-N-(5-methoxypyridin-3-yl)benzenesulfonamide], the half-maximal inhibitory concentration (IC50) was 27 nM.

For the compound `O=C(c1ccccc1S(=O)(=O)Nc1cncc(Br)c1)N1CCCCC1` [Example 392, N-(5-bromopyridin-3-yl)-2-(piperidin-1-ylcarbonyl)benzenesulfonamide], the IC50 came to 65 nM.
